Species on record: Rattus norvegicus
Test: Open TG-GATES - Regimen: Single
Type: toxicity, organism-based, Sprague-Dawley
Set-up: regimen Single, gender Male, age 6 weeks
Conditions: in vivo, po, 0 mg/kg, route gavage, dose level Control; for APTT / Bas / Eos / Fbg / Hb / Ht / Lym / MCH / MCHC / MCV / Mono / Neu / PT / Plat / RBC / Ret / WBC: tissue Blood; for KIDNEY_L / KIDNEY_R / KIDNEY_TOTAL: tissue Kidney; for LIVER: tissue Liver; for A/G / ALP / ALT / AST / BUN / CRE / Ca / Cl / DBIL / GLC / IP / K / LDH / Na / PL / RALB / TBIL / TC / TG / TP / gamma-GTP: tissue Plasma

CN1C(=O)CCS(=O)(=O)C1c1ccc(Cl)cc1 (configuration not stated) [CHLORMEZANONE]
TERMINAL_BW (3 h): 226.1 g | APTT (3 h): 17 s | Bas (3 h): 0% | Eos (3 h): 0.8% | Fbg (3 h): 315.6 mg/dL | Hb (3 h): 13.7 g/dL | Ht (3 h): 40.3% | Lym (3 h): 80.4% | MCH (3 h): 21.7 pg | MCHC (3 h): 33.9% | MCV (3 h): 64.1 fL | Mono (3 h): 3% | Neu (3 h): 15% | PT (3 h): 13.1 s | Plat (3 h): 122.7 x10_4/uL | RBC (3 h): 629.8 x10_4/ul | Ret (3 h): 7.8% | WBC (3 h): 78.6 x10_2/uL | KIDNEY_L (3 h): 1 g | KIDNEY_R (3 h): 1 g | KIDNEY_TOTAL (3 h): 2 g | LIVER (3 h): 10.3 g | A/G (3 h): 0.9 | ALP (3 h): 1820.8 IU/L | ALT (3 h): 43.6 IU/L | AST (3 h): 67.4 IU/L | BUN (3 h): 10.2 mg/dL | CRE (3 h): 0.1 mg/dL | Ca (3 h): 11.5 mg/dL | Cl (3 h): 106.2 meq/L | DBIL (3 h): 0.036 mg/dL | GLC (3 h): 182.2 mg/dL | IP (3 h): 9.5 mg/dL | K (3 h): 4.2 meq/L | LDH (3 h): 58.2 IU/L | Na (3 h): 140.2 meq/L | PL (3 h): 145.2 mg/dL | RALB (3 h): 2.7 g/dL | TBIL (3 h): 0.044 mg/dL | TC (3 h): 73.8 mg/dL | TG (3 h): 108.2 mg/dL | TP (3 h): 5.7 g/dL | gamma-GTP (3 h): 1 IU/L | TERMINAL_BW (6 h): 224.1 g | APTT (6 h): 15.7 s | Bas (6 h): 0% | Eos (6 h): 1% | Fbg (6 h): 310.2 mg/dL | Hb (6 h): 13.7 g/dL | Ht (6 h): 40.5% | Lym (6 h): 75% | MCH (6 h): 21.9 pg | MCHC (6 h): 33.8% | MCV (6 h): 65 fL | Mono (6 h): 3.4% | Neu (6 h): 19.8% | PT (6 h): 13.2 s | Plat (6 h): 113.5 x10_4/uL | RBC (6 h): 622.8 x10_4/ul | Ret (6 h): 7.8% | WBC (6 h): 97 x10_2/uL | KIDNEY_L (6 h): 0.9 g | KIDNEY_R (6 h): 0.9 g | KIDNEY_TOTAL (6 h): 1.8 g | LIVER (6 h): 9.3 g | A/G (6 h): 0.9 | ALP (6 h): 1407 IU/L | ALT (6 h): 40.8 IU/L | AST (6 h): 78 IU/L | BUN (6 h): 10.4 mg/dL | CRE (6 h): 0.2 mg/dL | Ca (6 h): 11.6 mg/dL | Cl (6 h): 107 meq/L | DBIL (6 h): 0.02 mg/dL | GLC (6 h): 180.2 mg/dL | IP (6 h): 9.8 mg/dL | K (6 h): 4.3 meq/L | LDH (6 h): 57.8 IU/L | Na (6 h): 141.8 meq/L | PL (6 h): 145.6 mg/dL | RALB (6 h): 2.7 g/dL | TBIL (6 h): 0.04 mg/dL | TC (6 h): 85.2 mg/dL | TG (6 h): 54.4 mg/dL | TP (6 h): 5.7 g/dL | gamma-GTP (6 h): 1.4 IU/L | TERMINAL_BW (9 h): 227.6 g | APTT (9 h): 15.1 s | Bas (9 h): 0% | Eos (9 h): 1% | Fbg (9 h): 331.4 mg/dL | Hb (9 h): 13.4 g/dL | Ht (9 h): 39.9% | Lym (9 h): 74.4% | MCH (9 h): 21.2 pg | MCHC (9 h): 33.5% | MCV (9 h): 63.1 fL | Mono (9 h): 3.4% | Neu (9 h): 20.6% | PT (9 h): 13.2 s | Plat (9 h): 116.8 x10_4/uL | RBC (9 h): 631.4 x10_4/ul | Ret (9 h): 7.5% | WBC (9 h): 79.8 x10_2/uL | KIDNEY_L (9 h): 0.9 g | KIDNEY_R (9 h): 0.9 g | KIDNEY_TOTAL (9 h): 1.8 g | LIVER (9 h): 8.6 g | A/G (9 h): 0.9 | ALP (9 h): 1793 IU/L | ALT (9 h): 38.6 IU/L | AST (9 h): 67.8 IU/L | BUN (9 h): 10.8 mg/dL | CRE (9 h): 0.2 mg/dL | Ca (9 h): 11.1 mg/dL | Cl (9 h): 105 meq/L | DBIL (9 h): 0.022 mg/dL | GLC (9 h): 192.6 mg/dL | IP (9 h): 11.3 mg/dL | K (9 h): 3.8 meq/L | LDH (9 h): 51.4 IU/L | Na (9 h): 143 meq/L | PL (9 h): 132 mg/dL | RALB (9 h): 2.6 g/dL | TBIL (9 h): 0.044 mg/dL | TC (9 h): 74.8 mg/dL | TG (9 h): 52.6 mg/dL | TP (9 h): 5.5 g/dL | gamma-GTP (9 h): 1 IU/L | TERMINAL_BW (24 h): 235.8 g | APTT (24 h): 17.4 s | Bas (24 h): 0.2% | Eos (24 h): 0.8% | Fbg (24 h): 283.8 mg/dL | Hb (24 h): 13.4 g/dL | Ht (24 h): 39.1% | Lym (24 h): 78.8% | MCH (24 h): 21.6 pg | MCHC (24 h): 34.4% | MCV (24 h): 62.9 fL | Mono (24 h): 2.8% | Neu (24 h): 17% | PT (24 h): 13 s | Plat (24 h): 115.7 x10_4/uL | RBC (24 h): 621 x10_4/ul | Ret (24 h): 7.2% | WBC (24 h): 77.6 x10_2/uL | KIDNEY_L (24 h): 1 g | KIDNEY_R (24 h): 1 g | KIDNEY_TOTAL (24 h): 2 g | LIVER (24 h): 10.6 g | A/G (24 h): 0.9 | ALP (24 h): 1848.2 IU/L | ALT (24 h): 51.8 IU/L | AST (24 h): 87 IU/L | BUN (24 h): 16.4 mg/dL | CRE (24 h): 0.2 mg/dL | Ca (24 h): 11.5 mg/dL | Cl (24 h): 105.2 meq/L | DBIL (24 h): 0.022 mg/dL | GLC (24 h): 193.4 mg/dL | IP (24 h): 8.1 mg/dL | K (24 h): 4.3 meq/L | LDH (24 h): 69.4 IU/L | Na (24 h): 142 meq/L | PL (24 h): 141.6 mg/dL | RALB (24 h): 2.7 g/dL | TBIL (24 h): 0.028 mg/dL | TC (24 h): 77.4 mg/dL | TG (24 h): 91.8 mg/dL | TP (24 h): 5.7 g/dL | gamma-GTP (24 h): 1 IU/L
